Assay: Concentration of lead substances in blood plasma against time after 120 mg Ginkgo extract tablet
Details: humans, one tablet with 120 mg Ginkgo extract, means of 12 test persons, FIG. 1
Excerpt: The presented values are means of 12 test persons. The administered amount is equal to the daily maximum dose, recommended by the monograph.

CC(C)(C)[C@]1(O)CC2OC(=O)CC23C(=O)OC2OC(=O)[C@H](O)C231 (stereo partly shown) [bilobalide]
concentration in blood plasma 12 hours after intake: very little concentrations
